Test results as given in publication PMC9571264 (Molecules, 2022).

How the values were obtained:
Liver Cancer HepG2 = experiment: MTT cytotoxicity assay, HepG2; type: cell-based, human; conditions: Homo sapiens, HepG2, 48 h, read-out: IC50 (µM) ± SEM, Liver Cancer HepG2
Description: (§1) Cytotoxic activities of the synthesized derivatives were screened against leukemia (HL60), liver (HepG2), breast (MCF-7), and lung (A549) cancer cell lines and non-cancerous THLE2 and WISH cells at different concentrations [0.01–100 µM] for 48 h using the MTT assay (Table 1).
(§2) Human promyelocytic leukemia ”HL-60”, human hepatocellular carcinoma “HepG2”, human breast cancer “MCF-7”, human lung cancer “A549” cell lines, and two normal cell lines, THLE-2 as normal adult liver epithelial cells and WISH as normal epithelial cells, were obtained from American Type Culture Collection “Rockville, MD, USA”.
(§3) According to the manufacturer’s protocol, the cells were seeded in 96-well plates at a concentration of 5 × 10^4 cells per well (200 µL). Different concentrations of the tested compounds were used to test the cytotoxicity. […] A non-linear regression of curve fit was used to calculate the IC50.

Lung Cancer A549 = experiment: MTT cytotoxicity assay, A549; type: cell-based; conditions: Homo sapiens, 48 h, read-out: IC50 (µM) ± SEM, Lung Cancer A549
Description: as §1, §2, §3

Normal Liver THLE2 = experiment: MTT cytotoxicity assay, normal THLE2; type: cell-based; conditions: Homo sapiens, THLE-2, 48 h, read-out: IC50 (µM) ± SEM, Normal Liver THLE2
Description: as §1, §2, §3

[1] = system: P53, Bax, Caspase 3, Caspase 7, PI3k, AKT, and Bcl-2 mRNA in HepG2 cells; experiment: RT-PCR relative mRNA expression of apoptosis-related genes, HepG2; type: cell-based, human; conditions: HepG2, IC50 = 13.14 μM, 48 h; versus β-actin; untreated control = 1
[2] = system: p-PI3K and p-Akt in HepG2 cells; experiment: Western blotting p-PI3K and p-AKT, HepG2; type: cell-based, human; conditions: HepG2, with respect to control untreated cells
Description: Western blotting analysis was conducted using untreated and treated HepG2 and HL60 cells. Cells were washed in PBS and lysed in a boiling sample buffer (62.5 mM Tris-HCl pH 6.8, 1% SDS, 10% glycerol, and 5% β-mercaptoethanol) for sodium dodecyl sulfate polyacrylamide gel electrophoresis (SDS-PAGE). The lysates were boiled for 5 min with a lamellae buffer, and the proteins were separated by SDS-PAGE and transferred to an Immobilon membrane (Millipore, Burlington, MA, USA). After incubation in 5% non-fat dry milk, Tris-HCL, 0.1% Tween 20 for 1 h, p-PI3K, and p-AKT, primary antibodies were added to one of the membranes containing specimen samples and incubated at 4 °C overnight. Appropriate secondary antibodies were incubated for 2 hr at room temperature. After being washed twice n 1× TBS-T, densitometric analysis of the immunoblots was performed to quantify the amounts of p-PI3K and p-AKT against the control sample by total protein normalization using Image analysis software on the ChemiDoc MP imaging system (version 3) produced by Bio-Rad (Hercules, CA, USA).
concentration was measured. Lysates were combined with reaction buffer and
incubated with Caspase 3/7 Detection Reagent (specific colorimetric substrates) at 37
°C for 6 h. The samples were estimated at λ 488 nm in BD FACS Calibur flow
2.2.2.3. […]
the immunoblots was performed to quantify the amounts of p-PI3K and p-AKT against […]

`Cc1c(Br)c(=O)oc2c(Br)c(OC(=O)/C=C/c3ccccc3)c(Br)cc12` [Compound 8b, (2E)-3,6,8-Tribromo-4-methyl-2-oxo-2H-chromen-7-yl Cinnamate] gave an IC50 (Liver Cancer HepG2) of 13.1 ± 0.22 µM, an IC50 (Lung Cancer A549) of 4.63 ± 0.16 µM and an IC50 (Normal Liver THLE2) of 86.5 ± 2.16 µM. For the same molecule, the “AKT relative mRNA expression” value [1] was 0.72 fold, the “Bax relative mRNA expression” value [1] was 1.51 fold and the “Bcl-2 relative mRNA expression” value [1] was 0.75 fold. The “P53 relative mRNA expression” value [1] was 3.89 fold, the “PI3K relative mRNA expression” value [1] was 0.75 fold and the “caspase 3 relative mRNA expression” value [1] was 4.63 fold. The “caspase 7 relative mRNA expression” value [1] was 3.63 fold and the “levels of p-PI3K and p-Akt” value [2] was “effectively suppressed”.
